From PubChem BioAssay AID1196 (NMMLSC, 2008)
Calls of active or inactive are those of the source. No rule for the calls is given here.

System: prostate cell differentiation activation, dose response
Test: prostate cell differentiation inducers, concentration series – secondary assay, dose response (AID 1196)

## Cc1ccc(C)c(N2CCN(CCCNC(=O)Cn3cc4c(n3)CCCCC4)CC2)c1
  EC50: 2.68 µM

## COc1ccc2cc3cc(C(=O)Nc4ccccc4N4CCN(C)CC4)oc3nc2c1
  EC50: 3.87 µM

## CC1CCCCN1CCNC(=O)c1ccc2c(=O)n(CCc3ccccc3)c(=O)[nH]c2c1 (stereo not given)
  EC50: 16.2 µM (inactive)

## Cc1cc(N2CCN(C)CC2)nc2ccc(NC(=O)c3ccc(Br)o3)cc12
  EC50: 2.21 µM

## Cc1oc(-c2ccc(Cl)cc2)nc1CN1CCC(C(=O)N2CCN(Cc3ccccc3)CC2)CC1
  EC50: 1.81 µM

## N=c1n(CCN2CCCCC2)c2ccccc2n1CC(O)COc1ccccc1 (stereo not given)
  EC50: 2.21 µM

## Cn1c(=O)cc(OCC(=O)NCCCN2CCN(c3ccccc3F)CC2)c2ccccc21
  EC50: 27.8 µM (inactive)

## Cn1c(C(=O)NCCCN2CCN(c3cccc(Cl)c3)CC2)cc2c(=O)n(C)c3ccccc3c21
  EC50: 11.1 µM (inactive)

## Cc1ccccc1CS(=O)(=O)CCC(=O)NCCCN1CCN(c2ccccc2F)CC1
  EC50: 7.46 µM

## CCn1c(=O)cc(SCC(=O)NCCN2CCN(Cc3ccccc3)CC2)c2ccccc21
  EC50: 20.4 µM (inactive)

## CCN1CCCC1CNC(=O)c1cc2c(-c3ccc(Cl)cc3)nn(C)c2s1 (stereo not given)
  EC50: 1.51 µM

## Cc1ccccc1-c1nc(CN2CCC(C(=O)NCc3cccnc3)CC2)c(C)o1
  EC50: 12.5 µM (inactive)

## Cc1oc(-c2ccc(Cl)cc2)nc1CN1CCC(C(=O)NCCCN2CCOCC2)CC1
  EC50: 3.44 µM

## Cc1ccccc1-c1nc(CN2CCC(C(=O)NCCCN3CC(C)CC(C)C3)CC2)c(C)o1 (stereo not given)
  EC50: 1.27 µM

## CN(C)CCCN1c2ccccc2CCc2ccc(Cl)cc21
  EC50: 1.46 µM

## O=C(NCCCN1CCN(c2cccc(Cl)c2)CC1)c1cccc(N2CCCC2=O)c1
  EC50: 17.1 µM (inactive)

## COc1ccc(-c2noc(-c3cc(Cl)ccc3Cl)n2)cc1OC
  EC50: 10.3 µM (inactive)

## CN(C)c1ccc(CNC2CC(C)(C)NC(C)(C)C2)cc1
  EC50: 5.53 µM

## CCOc1ccc(NC(=O)COc2nsnc2N2CCCCC2)cc1
  EC50: 0.277 µM

## Cc1ccccc1-c1nc(CN2CCC(C(=O)NCCCN3CCOCC3)CC2)c(C)o1
  EC50: 5.47 µM

## COc1ccccc1NC(=O)c1nc[nH]c1C(=O)Nc1ccccc1OC
  EC50: 2.67 µM

## CCN1CCN(c2cc(C)c3cc(NC(=O)c4ccc(Br)o4)ccc3n2)CC1
  EC50: 3.37 µM

## CCN(CC)CCCNC(=O)c1cc2c(-c3ccc(Cl)cc3)nn(C)c2s1
  EC50: 2.85 µM

## CCCN(CCC)CCNC(=O)C1CCN(Cc2nc(-c3ccc(Cl)cc3)oc2C)CC1
  EC50: 6.5 µM

## CCN1CCN(C(c2cccs2)C(C)NS(=O)(=O)c2ccc(Br)cc2)CC1 (stereo not given)
  EC50: 16.8 µM (inactive)

## CCOc1ccccc1NC(=O)c1nc[nH]c1C(=O)Nc1ccccc1OCC
  EC50: 8.92 µM

## CCOc1cccc2cc(-c3cn4cc(C)ccc4n3)c(=O)oc12
  EC50: 3.03 µM

## CCn1c(=O)cc(SCC(=O)NCCCN2CCN(c3ccccc3F)CC2)c2ccccc21
  EC50: 9.05 µM

## Cc1ccccc1-c1nc(CN2CCCC(C(=O)NCCCN3CCOCC3)C2)c(C)o1 (stereo not given)
  EC50: 11.7 µM (inactive)

## Cc1ccc(OCC(O)Cn2c(=N)n(CCN3CCCCC3)c3ccccc32)cc1 (stereo not given)
  EC50: 1.47 µM

## Cn1c(=O)cc(SCC(=O)NCCCN2CCN(c3ccccc3F)CC2)c2ccccc21
  EC50: 9.37 µM

## COc1ccc(CCn2c(=N)c(C(=O)NCc3ccco3)cc3c(=O)n4ccccc4nc32)cc1
  EC50: 29.2 µM (inactive)

## CCN1CCN(c2ncc(C(=O)Nc3cc(Cl)c(OC)cc3OC)c3ccccc23)CC1
  EC50: 5.27 µM

## CCOC(=O)c1ccccc1NC(=O)Cn1c(-c2nonc2N)nc2ccccc21
  EC50: 0.218 µM

## COc1ccc(-c2ccc(-c3noc(-c4ccccc4)n3)c(OC)n2)cc1
  EC50: 8.46 µM

## CCN(CC)CCNC(=O)c1ccc(N2CCCCC2)c(NS(=O)(=O)c2ccc(C)cc2)c1
  EC50: 5.88 µM

## CCN1CCCC1CNC(=O)C1CCN(Cc2nc(-c3cccc(Br)c3)oc2C)CC1 (stereo not given)
  EC50: 1.16 µM

## Cc1ccc(Nc2cc(=O)n(C3CCCCC3)c(=O)[nH]2)cc1C
  EC50: 0.0873 µM

## COc1ccc(Nc2nc(N)nc(CN3CCC(Cc4ccccc4)CC3)n2)cc1
  EC50: 2.89 µM

## Cn1nc(-c2ccc(Cl)cc2)c2cc(C(=O)NCCCN3CCOCC3)sc21
  EC50: 5.34 µM

## CCN(CC)CCNC(=O)c1cc2c(-c3ccc(Cl)cc3)nn(C)c2s1
  EC50: 2.48 µM

## COc1cc2nc(N3CCN(C(=O)C4COc5ccccc5O4)CC3)nc(N)c2cc1OC (stereo not given)
  EC50: 8.34 µM

## CCCOc1ccccc1C1CC(=O)Nc2cc3c(cc21)OCO3 (stereo not given)
  EC50: 0.239 µM

## Cc1ccc2c(c1)-c1c(cnn1CC(=O)Nc1ccccc1N1CCN(C)CC1)CO2
  EC50: 6.04 µM

## CCN1CCN(CCNC(=O)C2CCN(Cc3nc(-c4ccc(Cl)cc4)oc3C)CC2)CC1
  EC50: 6.46 µM
